This passage reports Emax, minimal effective concentration and EC50 results from patent publication US12187759B2, “TLR7 agonists” (Primmune Therapeutics, Inc., priority 2019, dated 2025).

The test system of assay [1] is hPBMCs (Human Peripheral Blood Mononuclear Cells). Description: Induction of interferon-α in hPBMCs in vitro. Type of assay: cell-based. Particulars: Homo sapiens, PBMC; for Emax: 24 h, peak IFNα2a as percentage of peak response of standard 2-Amino-7-(cyclopropylmethyl)-9-B-D-xylofuranosyl-7,9-dihydro-1H-purine-6,8-dione, averaged across donors, read-out: IFNrmax, Relative Maximal IFNα2a Production (%); for minimal effective concentration: minimal effective concentration for interferon-α production (generally at least 80 pg/ml above baseline), geometric mean across at least three donors, 24 hours, read-out: Weighted MEC. The gist of the method:
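Peripheral blood mononuclear cells from healthy human donors were dispensed into replicate culture wells at 1.0-7.5×10^6 cells per well. They were exposed to test compound for 24 hours at 37° C. in humidified 5% CO2, with untreated wells as controls. Secreted interferon-α was quantified with a multisubtype ELISA or as IFNα2a in a luminex panel. MEC was defined as the lowest concentration giving a significant rise above baseline, generally at least 80 pg/ml. IFNmax was the highest IFN level seen at any tested concentration.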

The next assay addresses T1, human TLR7 (Homo sapiens, UniProt Q9NYK1).
T1 construct: host or cells: HEK293
T1 sequence (Q9NYK1 27-1049): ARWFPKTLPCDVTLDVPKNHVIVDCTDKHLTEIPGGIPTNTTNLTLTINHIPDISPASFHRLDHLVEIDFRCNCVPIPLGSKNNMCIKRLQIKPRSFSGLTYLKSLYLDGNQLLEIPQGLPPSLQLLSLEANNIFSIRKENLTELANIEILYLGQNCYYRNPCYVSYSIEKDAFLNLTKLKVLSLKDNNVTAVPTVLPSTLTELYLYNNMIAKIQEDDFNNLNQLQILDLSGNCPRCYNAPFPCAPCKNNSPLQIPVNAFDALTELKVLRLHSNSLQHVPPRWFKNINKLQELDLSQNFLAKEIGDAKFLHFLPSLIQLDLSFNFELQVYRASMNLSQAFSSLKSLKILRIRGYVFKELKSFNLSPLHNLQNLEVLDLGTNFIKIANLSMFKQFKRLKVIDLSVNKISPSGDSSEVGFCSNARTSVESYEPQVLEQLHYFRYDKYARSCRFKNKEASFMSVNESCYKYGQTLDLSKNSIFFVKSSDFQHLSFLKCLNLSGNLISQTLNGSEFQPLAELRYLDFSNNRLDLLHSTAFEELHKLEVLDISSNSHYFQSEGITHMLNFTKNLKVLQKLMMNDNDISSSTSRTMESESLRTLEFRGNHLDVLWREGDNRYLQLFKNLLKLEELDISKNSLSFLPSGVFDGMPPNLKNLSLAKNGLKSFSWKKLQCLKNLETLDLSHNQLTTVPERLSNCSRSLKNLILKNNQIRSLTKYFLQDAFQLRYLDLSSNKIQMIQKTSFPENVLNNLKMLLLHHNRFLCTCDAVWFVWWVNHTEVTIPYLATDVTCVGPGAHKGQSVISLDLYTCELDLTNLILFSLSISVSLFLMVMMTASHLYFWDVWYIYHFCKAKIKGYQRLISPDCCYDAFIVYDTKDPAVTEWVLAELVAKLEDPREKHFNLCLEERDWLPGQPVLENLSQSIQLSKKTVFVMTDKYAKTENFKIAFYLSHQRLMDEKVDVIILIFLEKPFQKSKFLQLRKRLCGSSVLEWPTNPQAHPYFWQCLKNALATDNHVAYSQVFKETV
Description: TLR7 reporter cell assay (HEK293 cells stably expressing human TLR7 with NF-κB-driven SEAP reporter). It counts as cell-based. Particulars: 15-24 hours; for Emax at 500 µM: HEK293, 500 μM compound, SEAP activity (OD 650 nm) relative to 28.5 μM resiquimod, read-out: Response at 500 μM Compound as a Percent of Resiquimod Response; for EC50: fit of SEAP dose response, ymax from 28.5 μM resiquimod. The procedure, abridged:
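HEK293 cells stably expressing human TLR7 with an NF-κB-driven SEAP reporter, treated with compound for 15-24 hours. SEAP read at OD 650 nm. EC50 fitted by nonlinear least squares, maximum set by 28.5 μM resiquimod.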

For `CC[C@H](O)[C@@H]1C[C@@H](O)[C@H](n2c(=O)n(CCO)c3c(=O)[nH]c(N)nc32)O1` [Compound 32, 2-Amino-9-((2R,3R,5S)-3-hydroxy-5-((S)-1-hydroxypropyl)tetrahydrofuran-2-yl)-7-(2-hydroxyethyl)-7,9-dihydro-1H-purine-6,8-dione], in assay [1], the Emax came out at 223% and the minimal effective concentration was found to be 7.9 µM. For the same compound, on human TLR7, the Emax at 500 µM amounted to 68% and the EC50 was found to be 339 µM.

With `C#CC[C@H](O)[C@@H]1C[C@@H](O)[C@H](n2c(=O)n(CC#C)c3c(=O)[nH]c(N)nc32)O1` [Compound 35, 2-Amino-9-((2R,3R,5S)-3-hydroxy-5-((S)-1-hydroxybut-3-yn-1-yl)tetrahydrofuran-2-yl)-7-(prop-2-yn-1-yl)-7,9-dihydro-1H-purine-6,8-dione], in assay [1], the Emax is 207% and the minimal effective concentration was determined as 3.1 µM. At human TLR7, the Emax at 500 µM turned out to be 91% and the EC50 turned out to be 114 µM.

Consider `C#CCn1c(=O)n([C@@H]2O[C@H](C(=O)OC)C[C@H]2O)c2nc(N)[nH]c(=O)c21` [Compound 39, Methyl (2S,4R,5R)-5-(2-amino-6,8-dioxo-7-(prop-2-yn-1-yl)-1,6,7,8-tetrahydro-9H-purin-9-yl)-4-hydroxytetrahydrofuran-2-carboxylate], for which, in assay [1], the Emax is not above 10% and the minimal effective concentration was more than 50 µM. The Emax at 500 µM on human TLR7 was less than 5%.

For `C#CCn1c(=O)n([C@@H]2O[C@H](C(=O)O)C[C@H]2O)c2nc(N)[nH]c(=O)c21` [Compound 40, (2S,4R,5R)-5-(2-Amino-6,8-dioxo-7-(prop-2-yn-1-yl)-1,6,7,8-tetrahydro-9H-purin-9-yl)-4-hydroxytetrahydrofuran-2-carboxylic acid], in assay [1], the Emax was not above 10% and the minimal effective concentration was more than 50 µM. Also, on human TLR7, the Emax at 500 µM was less than 5%.

On to `C#CCn1c(=O)n([C@@H]2O[C@H](C(N)=O)C[C@H]2O)c2nc(N)[nH]c(=O)c21` [Compound 41, (2S,4R,5R)-5-(2-Amino-6,8-dioxo-7-(prop-2-yn-1-yl)-1,6,7,8-tetrahydro-9H-purin-9-yl)-4-hydroxytetrahydrofuran-2-carboxamide], for which, in assay [1], the Emax is not above 10% and the minimal effective concentration is more than 50 µM. The Emax at 500 µM on human TLR7 is less than 5%.

In the case of `C#CCn1c(=O)n([C@@H]2O[C@H](C(=O)NC)C[C@H]2O)c2nc(N)[nH]c(=O)c21` [Compound 42, (2S,4R,5R)-5-(2-Amino-6,8-dioxo-7-(prop-2-yn-1-yl)-1,6,7,8-tetrahydro-9H-purin-9-yl)-4-hydroxy-N-methyltetrahydrofuran-2-carboxamide], in assay [1], the Emax was not above 10% and the minimal effective concentration is more than 50 µM. Moreover, the Emax at 500 µM on human TLR7 was less than 5%.

In the case of `CC[C@H](O)[C@@H]1C[C@@H](O)[C@H](n2c(=O)n(CC(F)(F)F)c3c(=O)[nH]c(N)nc32)O1` [Compound 43, 2-Amino-9-((2R,3R,5S)-3-hydroxy-5-((S)-1-hydroxypropyl)tetrahydrofuran-2-yl)-7-(2,2,2-trifluoroethyl)-7,9-dihydro-1H-purine-6,8-dione], in assay [1], the Emax was 158% and the minimal effective concentration came to 2.5 µM. At human TLR7, the Emax at 500 µM is 97% and the EC50 is 55 µM.

On to `CC[C@H](O)[C@H]1O[C@@H](n2c(=O)n(CC(F)(F)F)c3c(=O)[nH]c(N)nc32)[C@H](O)[C@H]1F` [Compound 44, 2-Amino-9-((2R,3S,4R,5R)-4-fluoro-3-hydroxy-5-((S)-1-hydroxypropyl)tetrahydrofuran-2-yl)-7-(2,2,2-trifluoroethyl)-7,9-dihydro-1H-purine-6,8-dione], for which, in assay [1], the Emax was found to be 250% and the minimal effective concentration was determined as 2 µM. On human TLR7, the Emax at 500 µM was found to be 101% and the EC50 was 86 µM.

On to `C#CCn1c(=O)n([C@@H]2O[C@H]([C@@H](O)CSC)C[C@H]2O)c2nc(N)[nH]c(=O)c21` [Compound 45, 2-Amino-9-((2R,3R,5S)-3-hydroxy-5-((R)-1-hydroxy-2-(methylthio)ethyl)tetrahydrofuran-2-yl)-7-(prop-2-yn-1-yl)-7,9-dihydro-1H-purine-6,8-dione], for which, in assay [1], the Emax was found to be 321% and the minimal effective concentration was found to be 5 µM. Also, at human TLR7, the Emax at 500 µM came out at 66% and a half-maximal effect (EC50) was put at 185 µM.

Regarding `CC[C@H](O)[C@H]1O[C@@H](n2c(=O)n(CCSC)c3c(=O)[nH]c(N)nc32)[C@H](O)[C@H]1F` [Compound 46, 2-Amino-9-((2R,3S,4R,5R)-4-fluoro-3-hydroxy-5-((S)-1-hydroxypropyl)tetrahydrofuran-2-yl)-7-(2-(methylthio)ethyl)-7,9-dihydro-1H-purine-6,8-dione], in assay [1], the Emax came out at 317% and the minimal effective concentration is 3.1 µM. At human TLR7, the Emax at 500 µM was 30% and the EC50 was more than 500 µM.

For orientation: EC50 means the concentration needed to bring the measured effect to its halfway point.
